# Laboratory results taken from ChEMBL document CHEMBL3991601, “The target landscape of clinical kinase drugs” (Science, 2017).
# The source made the active and inactive calls. Rule as the data show it, for most assays here: actives have a measured Kd and inactives only a lower limit.
# Columns and labels:
# [1] = molecular target: Serine/threonine-protein kinase MRCK beta (Homo sapiens, UniProt Q9Y5S2)
# Myosin-14 = Myosin-14 (Homo sapiens, UniProt Q7Z406)
# [2] = molecular target: T1, Serine/threonine-protein kinase PLK4 (Homo sapiens, UniProt O00444)
# T1 sequence (O00444 whole entry): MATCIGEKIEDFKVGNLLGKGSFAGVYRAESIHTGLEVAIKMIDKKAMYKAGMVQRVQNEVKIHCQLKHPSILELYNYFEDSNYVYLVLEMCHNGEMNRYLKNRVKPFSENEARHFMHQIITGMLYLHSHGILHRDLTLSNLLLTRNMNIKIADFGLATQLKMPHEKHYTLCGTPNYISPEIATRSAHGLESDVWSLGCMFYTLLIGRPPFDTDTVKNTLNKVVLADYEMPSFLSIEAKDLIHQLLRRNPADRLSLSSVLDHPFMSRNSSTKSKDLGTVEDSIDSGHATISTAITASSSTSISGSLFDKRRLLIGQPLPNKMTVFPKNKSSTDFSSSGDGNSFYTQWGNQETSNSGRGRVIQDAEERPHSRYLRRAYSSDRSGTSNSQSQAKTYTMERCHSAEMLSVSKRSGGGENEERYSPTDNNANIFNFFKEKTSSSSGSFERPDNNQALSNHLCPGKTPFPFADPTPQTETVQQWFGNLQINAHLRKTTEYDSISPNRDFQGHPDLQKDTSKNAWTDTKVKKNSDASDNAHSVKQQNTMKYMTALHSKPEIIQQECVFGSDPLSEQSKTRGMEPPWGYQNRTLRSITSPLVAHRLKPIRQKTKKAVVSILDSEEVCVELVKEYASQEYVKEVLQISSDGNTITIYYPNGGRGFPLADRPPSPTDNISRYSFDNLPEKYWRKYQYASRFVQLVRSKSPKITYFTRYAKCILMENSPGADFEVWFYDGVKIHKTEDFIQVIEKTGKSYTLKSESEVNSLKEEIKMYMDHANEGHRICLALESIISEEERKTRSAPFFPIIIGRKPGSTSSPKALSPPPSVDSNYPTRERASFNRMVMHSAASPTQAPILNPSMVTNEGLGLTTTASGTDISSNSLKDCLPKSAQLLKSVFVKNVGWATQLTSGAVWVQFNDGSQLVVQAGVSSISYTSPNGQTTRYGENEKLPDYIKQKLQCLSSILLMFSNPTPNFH
# [3] = molecular target: Epidermal growth factor receptor (Homo sapiens, UniProt P00533)
# [4] = molecular target: T2, Serine/threonine-protein kinase Nek3 (Homo sapiens, UniProt P51956)
# T2 sequence (P51956 whole entry): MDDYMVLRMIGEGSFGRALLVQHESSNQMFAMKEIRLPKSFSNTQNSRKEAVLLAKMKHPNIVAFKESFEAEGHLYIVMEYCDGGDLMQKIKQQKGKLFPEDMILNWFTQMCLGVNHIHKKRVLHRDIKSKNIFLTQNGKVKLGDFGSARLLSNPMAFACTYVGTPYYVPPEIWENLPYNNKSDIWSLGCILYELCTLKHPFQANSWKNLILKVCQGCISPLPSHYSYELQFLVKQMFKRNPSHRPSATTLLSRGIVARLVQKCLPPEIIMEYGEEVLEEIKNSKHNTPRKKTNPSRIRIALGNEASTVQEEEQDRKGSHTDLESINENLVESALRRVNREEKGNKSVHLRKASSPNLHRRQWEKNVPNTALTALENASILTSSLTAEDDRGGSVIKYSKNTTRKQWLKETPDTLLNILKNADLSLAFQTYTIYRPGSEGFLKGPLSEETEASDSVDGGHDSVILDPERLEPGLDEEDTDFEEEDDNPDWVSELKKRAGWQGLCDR
# [5] = molecular target: Mitogen-activated protein kinase 8 (Homo sapiens, UniProt P45983)
# [6] = molecular target: Tyrosine-protein kinase Lyn (Homo sapiens, UniProt P07948)
# TGF-beta receptor type-1 = molecular target: T3, TGF-beta receptor type-1 (Homo sapiens, UniProt P36897)
# T3 sequence (P36897 whole entry): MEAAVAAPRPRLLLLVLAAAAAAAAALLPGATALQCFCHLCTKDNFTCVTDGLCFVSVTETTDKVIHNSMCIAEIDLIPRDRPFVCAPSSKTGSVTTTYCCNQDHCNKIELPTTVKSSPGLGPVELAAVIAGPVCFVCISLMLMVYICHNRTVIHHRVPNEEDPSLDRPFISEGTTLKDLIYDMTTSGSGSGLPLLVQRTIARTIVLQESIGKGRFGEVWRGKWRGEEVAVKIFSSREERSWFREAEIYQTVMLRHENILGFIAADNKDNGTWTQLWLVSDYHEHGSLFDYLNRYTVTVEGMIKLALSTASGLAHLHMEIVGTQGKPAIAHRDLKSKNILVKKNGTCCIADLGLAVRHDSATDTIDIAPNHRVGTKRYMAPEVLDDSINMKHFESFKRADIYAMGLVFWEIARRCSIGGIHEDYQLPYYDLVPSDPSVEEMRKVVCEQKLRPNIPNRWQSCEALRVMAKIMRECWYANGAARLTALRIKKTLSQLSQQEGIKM
# Actin-related protein 2 = Actin-related protein 2 (Homo sapiens, UniProt P61160)
# Activin receptor type-1 = molecular target: T4, Activin receptor type-1 (Homo sapiens, UniProt Q04771)
# T4 sequence (Q04771 whole entry): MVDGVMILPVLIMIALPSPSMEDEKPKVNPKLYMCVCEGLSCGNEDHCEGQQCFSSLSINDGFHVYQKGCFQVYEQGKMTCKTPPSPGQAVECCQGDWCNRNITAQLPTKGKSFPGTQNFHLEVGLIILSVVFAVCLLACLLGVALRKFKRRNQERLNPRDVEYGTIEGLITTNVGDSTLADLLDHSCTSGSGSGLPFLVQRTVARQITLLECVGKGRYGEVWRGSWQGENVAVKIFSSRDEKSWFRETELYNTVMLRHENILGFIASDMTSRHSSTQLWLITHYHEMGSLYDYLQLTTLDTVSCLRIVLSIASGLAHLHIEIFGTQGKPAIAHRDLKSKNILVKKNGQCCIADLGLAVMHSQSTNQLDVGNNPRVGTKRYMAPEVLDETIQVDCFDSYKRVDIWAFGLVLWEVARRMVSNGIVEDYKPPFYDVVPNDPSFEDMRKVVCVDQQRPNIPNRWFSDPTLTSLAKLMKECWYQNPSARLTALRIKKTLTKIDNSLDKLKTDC
# [7] = molecular target: Calcium/calmodulin-dependent protein kinase kinase 2 (Homo sapiens, UniProt Q96RR4)
# Also: in the data inactive means no Kd found up to 30 µM.
# Sequence of Epidermal growth factor receptor (P00533 whole entry): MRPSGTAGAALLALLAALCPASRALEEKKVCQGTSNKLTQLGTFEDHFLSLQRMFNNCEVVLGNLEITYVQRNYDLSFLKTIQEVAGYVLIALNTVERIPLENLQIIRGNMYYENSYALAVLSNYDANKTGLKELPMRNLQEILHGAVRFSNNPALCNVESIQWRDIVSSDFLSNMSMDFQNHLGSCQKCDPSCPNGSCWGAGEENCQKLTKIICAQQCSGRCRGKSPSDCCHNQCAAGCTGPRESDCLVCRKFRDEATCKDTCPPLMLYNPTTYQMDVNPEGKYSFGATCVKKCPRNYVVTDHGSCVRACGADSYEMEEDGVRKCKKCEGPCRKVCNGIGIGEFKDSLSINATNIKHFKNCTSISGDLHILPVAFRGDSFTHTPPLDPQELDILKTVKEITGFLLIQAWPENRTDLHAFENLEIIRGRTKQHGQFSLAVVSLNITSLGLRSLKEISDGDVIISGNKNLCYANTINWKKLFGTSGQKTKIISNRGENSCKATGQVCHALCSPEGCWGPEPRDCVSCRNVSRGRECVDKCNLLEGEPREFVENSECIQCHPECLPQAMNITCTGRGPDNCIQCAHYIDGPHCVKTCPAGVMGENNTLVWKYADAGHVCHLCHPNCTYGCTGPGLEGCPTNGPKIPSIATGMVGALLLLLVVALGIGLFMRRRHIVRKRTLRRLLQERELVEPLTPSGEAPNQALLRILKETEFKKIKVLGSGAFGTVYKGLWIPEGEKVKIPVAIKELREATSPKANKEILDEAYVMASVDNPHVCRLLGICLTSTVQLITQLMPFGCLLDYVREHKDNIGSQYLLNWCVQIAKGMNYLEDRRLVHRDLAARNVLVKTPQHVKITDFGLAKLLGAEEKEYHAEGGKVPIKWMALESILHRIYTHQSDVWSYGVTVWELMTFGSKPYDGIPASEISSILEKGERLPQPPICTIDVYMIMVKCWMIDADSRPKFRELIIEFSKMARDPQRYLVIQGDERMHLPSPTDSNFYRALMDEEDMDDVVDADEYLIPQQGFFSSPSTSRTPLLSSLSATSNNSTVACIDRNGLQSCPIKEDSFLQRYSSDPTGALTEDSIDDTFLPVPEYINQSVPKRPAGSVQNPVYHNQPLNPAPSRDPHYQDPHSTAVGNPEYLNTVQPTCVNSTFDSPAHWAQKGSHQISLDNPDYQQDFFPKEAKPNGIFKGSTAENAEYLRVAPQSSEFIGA
# Sequence of Mitogen-activated protein kinase 8 (P45983 whole entry): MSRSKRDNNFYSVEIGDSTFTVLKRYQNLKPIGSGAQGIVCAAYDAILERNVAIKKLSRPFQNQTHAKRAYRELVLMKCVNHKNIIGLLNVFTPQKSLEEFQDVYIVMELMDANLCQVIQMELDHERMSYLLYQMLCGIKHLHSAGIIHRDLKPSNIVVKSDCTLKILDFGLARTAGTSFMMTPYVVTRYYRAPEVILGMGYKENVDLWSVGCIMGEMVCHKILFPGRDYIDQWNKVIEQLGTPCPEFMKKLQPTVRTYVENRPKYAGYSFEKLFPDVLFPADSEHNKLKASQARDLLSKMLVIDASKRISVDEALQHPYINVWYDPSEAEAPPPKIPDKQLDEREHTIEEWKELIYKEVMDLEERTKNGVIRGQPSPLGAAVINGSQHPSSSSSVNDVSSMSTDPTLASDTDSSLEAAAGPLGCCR
# Sequence of Serine/threonine-protein kinase MRCK beta (Q9Y5S2 whole entry): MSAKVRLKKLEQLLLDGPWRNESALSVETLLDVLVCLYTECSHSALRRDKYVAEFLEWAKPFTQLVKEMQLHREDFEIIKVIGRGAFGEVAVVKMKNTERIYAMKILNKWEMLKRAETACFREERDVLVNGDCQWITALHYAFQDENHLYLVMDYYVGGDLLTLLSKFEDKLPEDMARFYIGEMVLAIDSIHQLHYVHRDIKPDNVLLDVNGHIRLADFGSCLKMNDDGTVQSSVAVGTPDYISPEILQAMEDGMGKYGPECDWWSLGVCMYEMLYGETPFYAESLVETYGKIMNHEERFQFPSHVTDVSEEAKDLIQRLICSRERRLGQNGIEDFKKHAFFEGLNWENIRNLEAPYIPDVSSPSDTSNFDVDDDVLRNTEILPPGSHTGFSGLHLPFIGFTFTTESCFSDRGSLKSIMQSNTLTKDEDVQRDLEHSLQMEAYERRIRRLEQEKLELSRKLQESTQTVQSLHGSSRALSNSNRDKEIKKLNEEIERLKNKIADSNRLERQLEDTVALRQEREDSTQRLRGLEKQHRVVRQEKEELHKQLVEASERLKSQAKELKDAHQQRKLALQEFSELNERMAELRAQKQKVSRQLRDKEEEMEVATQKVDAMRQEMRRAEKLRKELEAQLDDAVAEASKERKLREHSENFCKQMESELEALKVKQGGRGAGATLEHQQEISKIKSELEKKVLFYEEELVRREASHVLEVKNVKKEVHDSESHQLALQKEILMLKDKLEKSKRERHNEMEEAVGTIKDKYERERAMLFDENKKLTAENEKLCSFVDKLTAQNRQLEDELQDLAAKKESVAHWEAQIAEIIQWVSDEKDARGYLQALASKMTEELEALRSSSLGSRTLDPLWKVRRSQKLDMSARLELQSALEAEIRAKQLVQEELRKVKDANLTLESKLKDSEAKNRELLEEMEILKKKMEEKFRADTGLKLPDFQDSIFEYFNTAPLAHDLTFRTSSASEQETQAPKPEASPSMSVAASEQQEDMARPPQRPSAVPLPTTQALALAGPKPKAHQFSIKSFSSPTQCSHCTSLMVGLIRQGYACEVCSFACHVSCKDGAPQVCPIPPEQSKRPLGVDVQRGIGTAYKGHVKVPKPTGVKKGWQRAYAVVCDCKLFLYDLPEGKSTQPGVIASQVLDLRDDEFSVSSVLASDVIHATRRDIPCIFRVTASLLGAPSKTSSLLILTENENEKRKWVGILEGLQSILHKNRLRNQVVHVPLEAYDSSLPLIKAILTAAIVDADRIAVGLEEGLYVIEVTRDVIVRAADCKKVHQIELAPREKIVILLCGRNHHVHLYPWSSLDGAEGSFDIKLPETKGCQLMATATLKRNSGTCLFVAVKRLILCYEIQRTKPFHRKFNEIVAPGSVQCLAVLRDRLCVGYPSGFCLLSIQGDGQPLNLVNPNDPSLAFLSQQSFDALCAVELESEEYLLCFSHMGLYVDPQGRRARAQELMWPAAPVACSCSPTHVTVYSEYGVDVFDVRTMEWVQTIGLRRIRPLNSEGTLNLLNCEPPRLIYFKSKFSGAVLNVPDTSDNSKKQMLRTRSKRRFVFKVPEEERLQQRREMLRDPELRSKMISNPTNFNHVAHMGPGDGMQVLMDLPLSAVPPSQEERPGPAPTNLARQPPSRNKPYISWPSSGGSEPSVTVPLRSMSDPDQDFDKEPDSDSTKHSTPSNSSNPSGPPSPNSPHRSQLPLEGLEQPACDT
# Sequence of Tyrosine-protein kinase Lyn (P07948 whole entry): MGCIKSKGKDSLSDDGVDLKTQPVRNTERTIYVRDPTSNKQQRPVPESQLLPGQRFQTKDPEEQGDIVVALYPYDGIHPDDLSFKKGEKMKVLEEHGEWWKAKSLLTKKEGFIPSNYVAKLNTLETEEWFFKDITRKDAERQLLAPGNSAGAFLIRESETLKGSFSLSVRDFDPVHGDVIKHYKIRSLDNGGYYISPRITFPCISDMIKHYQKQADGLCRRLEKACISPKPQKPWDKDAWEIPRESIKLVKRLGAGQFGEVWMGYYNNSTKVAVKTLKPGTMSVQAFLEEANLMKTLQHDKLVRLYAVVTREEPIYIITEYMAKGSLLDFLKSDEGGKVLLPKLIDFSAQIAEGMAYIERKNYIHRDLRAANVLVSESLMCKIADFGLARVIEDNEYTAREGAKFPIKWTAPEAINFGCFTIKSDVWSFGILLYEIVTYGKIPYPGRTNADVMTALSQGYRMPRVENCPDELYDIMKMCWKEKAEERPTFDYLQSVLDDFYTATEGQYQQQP
# Sequence of Calcium/calmodulin-dependent protein kinase kinase 2 (Q96RR4 whole entry): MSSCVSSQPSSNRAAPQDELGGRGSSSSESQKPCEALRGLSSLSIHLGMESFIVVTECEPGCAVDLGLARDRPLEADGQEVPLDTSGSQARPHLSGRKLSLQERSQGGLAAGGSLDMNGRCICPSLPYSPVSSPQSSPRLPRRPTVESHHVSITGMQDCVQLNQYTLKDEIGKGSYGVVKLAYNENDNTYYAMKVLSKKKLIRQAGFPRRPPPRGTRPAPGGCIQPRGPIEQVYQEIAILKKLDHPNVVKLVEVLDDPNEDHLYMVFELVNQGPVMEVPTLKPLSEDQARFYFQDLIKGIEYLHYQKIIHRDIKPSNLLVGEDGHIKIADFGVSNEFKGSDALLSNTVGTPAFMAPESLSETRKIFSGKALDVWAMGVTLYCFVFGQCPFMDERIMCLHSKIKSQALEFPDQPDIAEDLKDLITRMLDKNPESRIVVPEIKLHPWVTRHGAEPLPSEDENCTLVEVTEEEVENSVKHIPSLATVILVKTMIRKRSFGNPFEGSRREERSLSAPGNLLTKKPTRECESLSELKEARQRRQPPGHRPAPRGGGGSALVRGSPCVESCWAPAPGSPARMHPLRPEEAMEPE
SMILES,Kd [1],Kd (Myosin-14),Kd [2],Kd [3],Kd [4],Kd [5],Kd [6],Kd (TGF-beta receptor type-1),Kd (Actin-related protein 2),Kd (Activin receptor type-1),Kd [7]
FC(F)(F)c1ccc(/C=C/c2nc(COc3ccc(CCCCn4ccnn4)cc3)co2)cc1 [MUBRITINIB],> 30 µM (inactive),> 30 µM (inactive),> 30 µM (inactive),> 30 µM (inactive),> 30 µM (inactive),> 30 µM (inactive),> 30 µM (inactive),> 30 µM (inactive),> 30 µM (inactive),> 30 µM (inactive),> 30 µM (inactive)
COc1ncc(-c2ccc3nccc(-c4ccnnc4)c3c2)cc1NS(=O)(=O)c1ccc(F)cc1F [OMIPALISIB],> 30 µM (inactive),> 30 µM (inactive),> 30 µM (inactive),> 30 µM (inactive),> 30 µM (inactive),> 30 µM (inactive),> 30 µM (inactive),> 30 µM (inactive),> 30 µM (inactive),> 30 µM (inactive),> 30 µM (inactive)
CCCCCCCCCCCCCCCCCCOP(=O)([O-])OC1CC[N+](C)(C)CC1 [PERIFOSINE],> 30 µM (inactive),> 30 µM (inactive),> 30 µM (inactive),> 30 µM (inactive),> 30 µM (inactive),> 30 µM (inactive),> 30 µM (inactive),> 30 µM (inactive),> 30 µM (inactive),> 30 µM (inactive),> 30 µM (inactive)
Cc1cnc(NC(=O)Nc2cc(Br)c(C)cc2OC[C@@H]2CNCCO2)cn1 [RABUSERTIB],> 30 µM (inactive),> 30 µM (inactive),> 30 µM (inactive),> 30 µM (inactive),> 30 µM (inactive),> 30 µM (inactive),> 30 µM (inactive),> 30 µM (inactive),> 30 µM (inactive),> 30 µM (inactive),> 30 µM (inactive)
CO[C@H]1C[C@@H]2CC[C@@H](C)[C@@](O)(O2)C(=O)C(=O)N2CCCC[C@H]2C(=O)O[C@H]([C@H](C)C[C@@H]2CC[C@@H](OP(C)(C)=O)[C@H](OC)C2)CC(=O)[C@H](C)/C=C(\C)[C@@H](O)[C@@H](OC)C(=O)[C@H](C)C[C@H](C)/C=C/C=C/C=C/1C [RIDAFOROLIMUS],> 30 µM (inactive),> 30 µM (inactive),> 30 µM (inactive),> 30 µM (inactive),> 30 µM (inactive),> 30 µM (inactive),> 30 µM (inactive),> 30 µM (inactive),> 30 µM (inactive),> 30 µM (inactive),> 30 µM (inactive)
N#CC1(c2ccc(NC(=O)c3cccnc3NCc3ccncc3)cc2)CCCC1 [RIVOCERANIB],> 30 µM (inactive),> 30 µM (inactive),> 30 µM (inactive),> 30 µM (inactive),> 30 µM (inactive),> 30 µM (inactive),> 30 µM (inactive),> 30 µM (inactive),> 30 µM (inactive),> 30 µM (inactive),> 30 µM (inactive)
O=c1[nH]ccc2cc(OC3CCNCC3)ccc12 [SAR-407899 FREE BASE],0.016 µM (active),> 30 µM (inactive),> 30 µM (inactive),> 30 µM (inactive),> 30 µM (inactive),> 30 µM (inactive),> 30 µM (inactive),> 30 µM (inactive),> 30 µM (inactive),> 30 µM (inactive),> 30 µM (inactive)

# The next lines start with the values.
Kd [1],Kd (Myosin-14),Kd [2],Kd [3],Kd [4],Kd [5],Kd [6],Kd (TGF-beta receptor type-1),Kd (Actin-related protein 2),Kd (Activin receptor type-1),Kd [7],SMILES
> 30 µM (inactive),> 30 µM (inactive),> 30 µM (inactive),> 30 µM (inactive),> 30 µM (inactive),> 30 µM (inactive),> 30 µM (inactive),> 30 µM (inactive),> 30 µM (inactive),> 30 µM (inactive),> 30 µM (inactive),NC1(c2ccc(-c3nc4ccn5c(=O)[nH]nc5c4cc3-c3ccccc3)cc2)CCC1 [MK-2206]
> 30 µM (inactive),> 30 µM (inactive),> 30 µM (inactive),> 30 µM (inactive),> 30 µM (inactive),> 30 µM (inactive),> 30 µM (inactive),> 30 µM (inactive),> 30 µM (inactive),> 30 µM (inactive),> 30 µM (inactive),CN(C[C@@H]1COCCO1)S(=O)(=O)Nc1ccc2ccc3ncc(-c4cnn(C)c4)cc3c(=O)c2c1 [MK-2461]
> 30 µM (inactive),> 30 µM (inactive),> 30 µM (inactive),> 30 µM (inactive),> 30 µM (inactive),> 30 µM (inactive),> 30 µM (inactive),> 30 µM (inactive),> 30 µM (inactive),> 30 µM (inactive),> 30 µM (inactive),Cn1cc(-c2cnc3ccc4ccc(CS(=O)(=O)NCc5ccccn5)cc4c(=O)c3c2)cn1 [MK-8033]
> 30 µM (inactive),> 30 µM (inactive),0.668 µM (active),> 30 µM (inactive),> 30 µM (inactive),> 30 µM (inactive),> 30 µM (inactive),> 30 µM (inactive),> 30 µM (inactive),> 30 µM (inactive),2.86 µM (active),Cc1nc(Nc2n[nH]c3c2CN(C(=O)N[C@H](CN(C)C)c2ccccc2)C3(C)C)c2sccc2n1 [PF-03758309]
> 30 µM (inactive),> 30 µM (inactive),> 30 µM (inactive),> 30 µM (inactive),> 30 µM (inactive),> 30 µM (inactive),> 30 µM (inactive),> 30 µM (inactive),> 30 µM (inactive),> 30 µM (inactive),> 30 µM (inactive),Cn1cc(-c2cnn3c(N)c(Br)c([C@@H]4CCCNC4)nc23)cn1 [SCH-900776]
